Data: patent US20240174671A1, “New 2,3-Dihydro-1H-pyrrolo[3,2-b]pyridine Derivatives as Sigma Ligands” (ACONDICIONAMIENTO TARRASENSE, priority 2021, published 2024)
Read-outs that look alike come from different tables or passages of the source.

Tests used:
human σ2/TMEM97 receptor = target: T1, human σ2/TMEM97 receptor (Homo sapiens, UniProt Q5BJF2); assay: Binding assay to human σ2/TMEM97 receptor ([3H]-DTG); conditions: transfected HEK-293 membranes, 10 nM [3H]-DTG, 25° C., 120 minutes; read-out: Binding σ-[…] (binding to σ2-receptor expressed as Ki)
T1 construct: expressed in transfected cells; host or cells: HEK-293
T1 sequence (Q5BJF2 whole entry): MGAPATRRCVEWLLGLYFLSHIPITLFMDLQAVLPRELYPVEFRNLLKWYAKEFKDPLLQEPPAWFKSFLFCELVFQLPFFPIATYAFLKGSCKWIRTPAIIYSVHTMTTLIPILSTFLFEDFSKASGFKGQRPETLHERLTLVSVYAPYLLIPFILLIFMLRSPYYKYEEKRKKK
Procedure, shortened: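 Membranes from transfected HEK-293 cells incubated with 10 nM [3H]-DTG in 50 mM Tris-HCl pH 8.0, 120 min at 25 °C; non-specific binding defined with 10 μM haloperidol. Bound radioactivity counted after filtration; compounds tested as % inhibition at 1 or 10 μM or at five concentrations for Ki.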

human σ1 receptor = target: T2, human σ1 receptor (Homo sapiens, UniProt Q99720); assay: Human σ1 receptor radioligand assay ([3H](+)-pentazocine); type: binding
T2 construct: expressed in transfected cells; host or cells: HEK-293
T2 sequence (Q99720 whole entry): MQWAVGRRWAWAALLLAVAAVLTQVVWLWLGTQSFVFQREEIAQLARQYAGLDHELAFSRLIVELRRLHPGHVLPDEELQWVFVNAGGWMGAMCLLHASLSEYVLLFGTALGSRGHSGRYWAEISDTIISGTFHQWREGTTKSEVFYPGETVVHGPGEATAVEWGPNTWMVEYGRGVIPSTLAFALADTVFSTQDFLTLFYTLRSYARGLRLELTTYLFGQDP
Procedure, shortened: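 Binding used [3H](+)-pentazocine, 120 min at 37° C, with non-specific binding defined by 10 μM haloperidol. Bound radioligand was collected by filtration, washed with ice-cold 10 mM Tris-HCl pH 7.4 and counted by scintillation.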

[1] = transfected HEK-293 membranes, 5 nM [3H](+)-pentazocine, 37° C., 120 minutes, read-out: Binding σ-[…] (binding to σ1-receptor expressed as Ki)

Row | SMILES | Ki (human σ2/TMEM97 receptor) | Ki (human σ1 receptor; [1]) | Ki (human σ1 receptor)
1 | CN(Cc1cccc(C#N)c1)C1CCN(C(=O)N2CC(C)(C)c3ncccc32)CC1 [Example 83, 3-(((1-(3,3-dimethyl-2,3-dihydro-1H-pyrrolo[3,2-b]pyridine-1-carbonyl)piperidin-4-yl)(methyl)amino)methyl)benzonitrile] | 100 to 500 nM | > 1000 nM | –
2 | Cc1ccc2c(n1)C(C)(C)CN2C(=O)N1CCC2(CCN(CCC(C)C)CC2)C1 [Example 100, (8-isopentyl-2,8-diazaspiro[4.5]decan-2-yl)(3,3,5-trimethyl-2,3-dihydro-1H-pyrrolo[3,2-b]pyridin-1-yl)methanone] | < 100 nM | 500 to 1000 nM | –
3 | CC1(C)CN(C(=O)N2CCC3(CCN(CCC4CCOCC4)CC3)C2)c2cccnc21 [Example 156, (3,3-dimethyl-2,3-dihydro-1H-pyrrolo[3,2-b]pyridin-1-yl)(8-(2-(tetrahydro-2H-pyran-4-yl)ethyl)-2,8-diazaspiro[4.5]decan-2-yl)methanone] | < 100 nM | – | 100 to 500 nM
4 | CN(Cc1ccccc1)C1CCN(C(=O)N2CC(C)(C)c3nc(C#N)ccc32)CC1 [Example 40, 1-(4-(benzyl(methyl)amino)piperidine-1-carbonyl)-3,3-dimethyl-2,3-dihydro-1H-pyrrolo[3,2-b]pyridine-5-carbonitrile] | < 100 nM | < 100 nM | –
5 | Cc1ccc2c(n1)C(C)(C)CN2C(=O)N1CCCCC(NCCC(C)C)C1 (centres unmarked) [Example 120, (3-(Isopentylamino)azepan-1-yl)(3,3,5-trimethyl-2,3-dihydro-1H-pyrrolo[3,2-t]pyridin-1-yl)methanone] | < 100 nM | 500 to 1000 nM | –
6 | CC1(C)CN(C(=O)N2CCC3(CCN(Cc4ccccc4F)CC3)CC2)c2cccnc21 [Example 145, (3,3-dimethyl-2,3-dihydro-1H-pyrrolo[3,2-b]pyridin-1-yl)(9-(2-fluorobenzyl)-3,9-diazaspiro[5.5]undecan-3-yl)methanone] | < 100 nM | < 100 nM | –
7 | Cc1ccc2c(n1)C(C)(C)CN2C(=O)N(C)C[C@@H](c1ccccc1)N(C)C [Example 8, (R)—N-(2-(dimethylamino)-2-phenylethyl)-N,3,3,5-tetramethyl-2,3-dihydro-1H-pyrrolo[3,2-b]pyridine-1-carboxamide] | > 1000 nM | 500 to 1000 nM | –
8 | COc1ccc(CN2CCC3(CC2)CCN(C(=O)N2CC(C)(C)c4nc(C)ccc42)C3)cc1 [Example 103, (8-(4-methoxybenzyl)-2,8-diazaspiro[4.5]decan-2-yl)(3,3,5-trimethyl-2,3-dihydro-1H-pyrrolo[3,2-b]pyridin-1-yl)methanone] | < 100 nM | 100 to 500 nM | –
9 | Cc1ccc2c(n1)C(C)(C)CN2C(=O)N1CCC2(CCN(C3CCOCC3)CC2)C1 [Example 110, (8-(tetrahydro-2H-pyran-4-yl)-2,8-diazaspiro[4.5]decan-2-yl)(3,3,5-trimethyl-2,3-dihydro-1H-pyrrolo[3,2-b]pyridin-1-yl)methanone] | < 100 nM | > 1000 nM | –
10 | Cc1ccc2c(n1)C(C)(C)CN2C(=O)N1CCC2(CCN(Cc3ccccn3)CC2)C1 [Example 94, (8-(pyridin-2-ylmethyl)-2,8-diazaspiro[4.5]decan-2-yl)(3,3,5-trimethyl-2,3-dihydro-1H-pyrrolo[3,2-b]pyridin-1-yl)methanone] | 100 to 500 nM | > 1000 nM | –
11 | CC1(C)CN(C(=O)NC2CCN(Cc3ccccc3)CC2)c2cc(F)cnc21 [Example 31, N-(1-benzylpiperidin-4-yl)-6-fluoro-3,3-dimethyl-2,3-dihydro-1H-pyrrolo[3,2-b]pyridine-1-carboxamide] | 500 to 1000 nM | < 100 nM | –
12 | Cc1ccc2c(n1)C(C)(C)CN2C(=O)N1CCC(N(C)Cc2ccncc2)CC1 [Example 75, (4-(methyl(pyridin-4-ylmethyl)amino)piperidin-1-yl)(3,3,5-trimethyl-2,3-dihydro-1H-pyrrolo[3,2-b]pyridin-1-yl)methanone] | 500 to 1000 nM | > 1000 nM | –
13 | CC(C)CCN(C)[C@H]1CCCN(C(=O)N2CCc3ncccc32)C1 [Example 64, (S)-(2,3-dihydro-1H-pyrrolo[3,2-b]pyridin-1-yl)(3-(isopentyl(methy)amino)piperidin-1-yl)methanone] | < 100 nM | < 100 nM | –
14 | Cc1ccc2c(n1)C(C)(C)CN2C(=O)N1CCC(N(C)CCc2ccccc2)CC1 [Example 50, (4-(methyl(phenethyl)amino)piperidin-1-yl)(3,3,5-trimethyl-2,3-dihydro-1H-pyrrolo[3,2-b]pyridin-1-yl)methanone] | < 100 nM | 100 to 500 nM | –
15 | CC1(C)CN(C(=O)N2CCC3(CCN(Cc4ccc(F)c(C#N)c4)CC3)CC2)c2cccnc21 [Example 147, 5-((9-(3,3-dimethyl-2,3-dihydro-1H-pyrrolo[3,2-b]pyridine-1-carbonyl)-3,9-diazaspiro[5.5]undecan-3-yl)methyl)-2-fluorobenzonitrile] | < 100 nM | < 100 nM | –

The next lines start with results.

Row | Ki (human σ2/TMEM97 receptor) | Ki (human σ1 receptor; [1]) | SMILES | Ki (human σ1 receptor)
16 | 500 to 1000 nM | > 1000 nM | Cc1ccc2c(n1)C(C)(C)CN2C(=O)N1CCC(N(C)Cc2cccc(S(C)(=O)=O)c2)CC1 [Example 56, (4-(methyl(3-(methylsulfonyl)benzyl)amino)piperidin-1-yl)(3,3,5-trimethyl-2,3-dihydro-1H-pyrrolo[3,2-b]pyridin-1-yl)methanone] | –
17 | > 1000 nM | 100 to 500 nM | CN(C)[C@@H](CNC(=O)N1CC(C)(C)c2ncc(Cl)cc21)c1ccccc1 [Example 14, (R)-6-chloro-N-(2-(dimethylamino)-2-phenylethyl)-3,3-dimethyl-2,3-dihydro-1H-pyrrolo[3,2-b]pyridine-1-carboxamide] | –
18 | 500 to 1000 nM | < 100 nM | Cc1ccc2c(n1)C(C)(C)CN2C(=O)NC1CCN(Cc2ccc(F)cc2)CC1 [Example 22, N-(1-(4-fluorobenzyl)piperidin-4-yl)-3,3,5-trimethyl-2,3-dihydro-1H-pyrrolo[3,2-b]pyridine-1-carboxamide] | –
19 | 100 to 500 nM | 100 to 500 nM | COc1ccc(CN(C)C2CCN(C(=O)N3CC(C)(C)c4nc(C)ccc43)CC2)cc1 [Example 58, (4-((4-methoxybenzyl)(methyl)amino)piperidin-1-yl)(3,3,5-trimethyl-2,3-dihydro-1H-pyrrolo[3,2-b]pyridin-1-yl)methanone] | –
20 | > 1000 nM | 100 to 500 nM | CN[C@H](CNC(=O)N1CC(C)(C)c2nc(C)ccc21)c1ccccc1 [Example 111, (S)-3,3,5-trimethyl-N-(2-(methylamino)-2-phenylethyl)-2,3-dihydro-1H-pyrrolo[3,2-b]pyridine-1-carboxamide] | –
21 | > 1000 nM | 100 to 500 nM | COc1cccc([C@H](CNC(=O)N2CC(C)(C)c3nc(C)ccc32)N(C)C)c1 [Example 35, (R)—N-(2-(dimethylamino)-2-(3-methoxyphenyl)ethyl)-3,3,5-trimethyl-2,3-dihydro-1H-pyrrolo[3,2-b]pyridine-1-carboxamide] | –
22 | > 1000 nM | > 1000 nM | Cc1ccc2c(n1)C(C)(C)CN2C(=O)N1CCC(N(C)Cc2cccc(C(=O)N(C)C)c2)CC1 [Example 63, N, N-dimethyl-3-((methyl(1-(3,3,5-trimethyl-2,3-dihydro-1H-pyrrolo[3,2-b]pyridine-1-carbonyl)piperidin-4-yl)amino)methyl)benzamide] | –
